Source: patent publication US6514946B1, “Macrolide antibiotics and treatment and prophylaxis of pasteurellosis using the same” (Zaidan Hojin Biseibutsu Kagaku Kenkyu Kai, priority 1999, dated 2003)
Values after ≈ are worked out from the molar mass of the structure shown.

Key:
[1] = tested on: H. somnus; test: Bacteria separation test from nasal cavity swab; format: in vivo, cattle
[2] = tested on: Past. multocida BSPO302 No. 6; test: Minimum inhibition concentration (MIC), agar double dilution method; format: cell-based, Pasteurella multocida; details: Past. multocida BSPO302 No. 6, strain from a pig; BHI agar
Method: (§1) Test 1; Minimum Inhibition Concentration (MIC)
(§2) MIC was measured, based on the standard method of Japan Society of Chemotherapy, on a BHI agar medium (Brain heart-infusion agar, made by Difco Laboratories Inc.(USA)) with respect to Pasteurella and on a Mueller hinton agar medium (Mueller hinton agar, made by Difco, Laboratories Inc.(USA)) with respect to the other test bacteria in both cases according to the double dilution method.

[3] = tested on: Past. multocida BOPO305 M-17; test: as above; format: cell-based, Pasteurella multocida; details: Past. multocida BOPO305 M-17, strain from a sheep; BHI agar
Method: as §1, §2

[4] = tested on: Past haemolytica BAPO103 S801; test: as above; format: cell-based, Pasteurella haemolytica; details: Past haemolytica BAPO103 S801, strain from poultry; BHI agar
Method: as §1, §2

[5] = tested on: Past haemolytica BBPO102 N811; test: as above; format: cell-based, Pasteurella haemolytica; details: Past haemolytica BBPO102 N811, strain from cattle; BHI agar
Method: as §1, §2

[6] = tested on: Ureaplasma; test: Bacteria separation test from nasal cavity swab; format: in vivo, cattle
[7] = tested on: M. bovirhinis; test: Bacteria separation test from nasal cavity swab; format: in vivo, cattle
[8] = tested on: M. bovis; format: in vivo, cattle; details: nasal cavity swab, before administration (baseline)
[9] = tested on: P. multocida; test: Bacteria separation test from nasal cavity swab; format: in vivo, cattle
[10] = tested on: P. haemolytica 63-39 intraperitoneally infected mice; test: Antiinfective test on infected mice
[11] = tested on: S. aureus Smith (virulent strain); test: microbe, parasite or virus in culture; format: cell-based, Staphylococcus aureus; details: S. aureus Smith (virulent strain); Mueller hinton agar
Method: as §1, §2

[12] = tested on: bovine bacterial pneumonia (Mycoplasma, Ureaplasma and Pasteurella); test: Clinical test against bovine bacterial pneumonia; format: in vivo, cattle; parameters: Average clinical score: scale not given here
Text: Test 5: Clinical Test Against Bovine Bacterial Pneumonia
In this test, each drug was subcutaneously administered to cattle suffering from bacterial pneumonia (infectious diseases with Mycoplasma, Ureaplasma and Pasteurella), respectively, and the clinical effect of P-MT was compared with those of tilmicosin and C-9.
Tests are made on 17 case of one to two-month-old Holstein cattle (weight 56 to 101 kg) suffering from bacterial pneumonia caused by single or mixed infection of Pasteurella, Mycoplasma, Ureaplasma and Haemophilus (6 animals for each of P-MT and C-9 and 5 animals for tilmicosin). The drug was subcutaneously administered to the animals once a day in an amount of 10 mg/kg.
Three calves showing a similar degree of symptoms at the start of the test were arranged in one group. Each subject of the same group was respectively tested with one of the above three compounds. Ailing calves were successively grouped when being available.
Clinical findings, based on the daily observation from the time of the administration through the 5th day of the trial, were scored on each item according to the criteria in the table below. The clinical efficacy of the compounds was judged on the 5th day.
As to judgment based on the clinical symptoms, cases which could be judged among each group were classified into remarkably effective (85 to 100), effective (70 to under 85), a little effective (50 to under 70) and infective (under 50) according to the following improvement rate by clinical scores, and after summing up, the following effective rate was calculated, the difference in the effective rate among the groups was determined using a statistical method, and thus effectivity was judged. [formula]

[13] = tested on: S. aureus FDA209P; test: Minimum inhibition concentration (MIC), agar double dilution method; format: cell-based, Staphylococcus aureus; details: Mueller hinton agar
Method: as §1, §2

[14] = tested on: E. coli K-12 R-5; test: as above; format: cell-based, Escherichia coli; details: Mueller hinton agar
Method: as §1, §2

[15] = tested on: P. haemolytica; test: Bacteria separation test from nasal cavity swab; format: in vivo, cattle
[16] = tested on: P. haemolytica 63-39; test: Sensitivity (MIC), agar plate dilution method; details: P. haemolytica 63-39; agar plate dilution, 10^6 CFU/ml
[17] = tested on: Pasteurella haemolytica BBPO101 N791; test: Minimum inhibition concentration (MIC), agar double dilution method; format: cell-based; details: Pasteurella haemolytica BBPO101 N791, strain from cattle; BHI agar
Method: as §1, §2

[18] = tested on: Serratia marcescens; test: as above; format: cell-based; details: Mueller hinton agar
Method: as §1, §2

[19] = tested on: Bacillus subtilis NRRL B-558; test: as above; format: cell-based; details: Bacillus subtilis NRRL B-558; Mueller hinton agar
Method: as §1, §2

[20] = tested on: Enterobacter aerogenes ATCC13048; test: as above; format: cell-based; details: Mueller hinton agar
Method: as §1, §2

[21] = tested on: Klebsiella pneumoniae PCI602; test: as above; format: cell-based; details: Mueller hinton agar
Method: as §1, §2

[22] = tested on: Shigella dysenteriae JS11910; test: as above; format: cell-based; details: Shigella dysenteriae JS11910; Mueller hinton agar
Method: as §1, §2

[23] = tested on: Micrococcus luteus PCI1001; test: as above; format: cell-based; details: Mueller hinton agar
Method: as §1, §2

[24] = tested on: Salmonella enteritidis 1891; test: as above; format: cell-based; details: Mueller hinton agar
Method: as §1, §2

[25] = tested on: Escherichia coli NIHJ; test: as above; format: cell-based; details: Mueller hinton agar
Method: as §1, §2

[26] = tested on: Staphylococcus aureus 193; test: as above; format: cell-based; details: Mueller hinton agar
Method: as §1, §2

[27] = tested on: ICR mice; test: Toxicity test, intravenous or subcutaneous injection; format: in vivo
[28] = tested on: Proteus vulgaris OX19; test: Minimum inhibition concentration (MIC), agar double dilution method; format: cell-based; details: Mueller hinton agar
Method: as §1, §2

[29] = before administration (baseline)
[30] = probit method from surviving numbers after 7 days, subcutaneous
[31] = intravenous injection, 0.25 mg/mouse
[32] = intravenous injection, 0.5 mg/mouse
[33] = intravenous injection, 1.0 mg/mouse
[34] = subcutaneous injection, 1.0 mg/mouse
[35] = subcutaneous injection, 2.0 mg/mouse
[36] = subcutaneous injection, 3.0 mg/mouse
[37] = subcutaneous injection, 4.0 mg/mouse

With `CC[C@H]1OC(=O)C[C@@H](O)[C@H](C)[C@@H](O[C@@H]2O[C@H](C)C(O)C(N(C)C)C2O)[C@@H](CC=O)C[C@@H](C)C(=O)/C=C/C(C)=C/[C@@H]1CN1CCCCC1` (stereo partly shown) the “Separation rate (%) at completion (number of animal)” value (“Separation rate (%) at completion” below) ([1]; at completion) was 0 (0/6) % (number of animal), the “Separation rate (%) before administration (number of animal)” value [1, 29] was 0 (0/6) % (number of animal) and the MIC [2] was 0.39 µg/mL (≈ 0.587 µM). It also gave an MIC [3] of 0.39 µg/mL (≈ 0.587 µM), an MIC [4] of 0.78 µg/mL (≈ 1.17 µM) and an MIC [5] of 0.78 µg/mL (≈ 1.17 µM). The “Separation rate (%) at completion” value ([6]; at completion) was 33 (2/6) % (number of animal), the “Separation rate (%) before administration (number of animal)” value [6, 29] was 100 (6/6) % (number of animal) and the “Separation rate (%) at completion” value ([7]; at completion) was 33 (2/6) % (number of animal). The “Separation rate (%) before administration (number of animal)” value [7, 29] was 67 (4/6) % (number of animal), the “Separation rate (%) before administration (number of animal)” value [8] was 33 (2/6) % (number of animal) and the “Separation rate (%) at completion” value ([9]; at completion) was 50 (3/6) % (number of animal). For the same compound, the “Separation rate (%) before administration (number of animal)” value [9, 29] was 100 (6/6) % (number of animal), the “Surviving number after 7 days/test number” value ([10]; dose 1 mg/kg subcutaneous one hour after infection) was 0/10 and the “Surviving number after 7 days/test number” value ([10]; dose 5 mg/kg subcutaneous one hour after infection) was 1/10. For the same compound, the “Surviving number after 7 days/test number” value ([10]; dose 10 mg/kg subcutaneous one hour after infection) was 3/10, the “Surviving number after 7 days/test number” value ([10]; dose 20 mg/kg subcutaneous one hour after infection) was 10/10 and the “Surviving number after 7 days/test number” value ([10]; dose 30 mg/kg subcutaneous one hour after infection) was 10/10. The “ED50 (95% confidence limit)” value [10, 30] was 10.3 mg/kg (7.7-13.4), the ED90 [10, 30] was 18.3 mg/kg and the MIC [11] was 0.39 µg/mL (≈ 0.587 µM). The Average clinical score ([12]; 1 day after completion of administration, cattle, 10 mg/kg subcutaneous) was 3.3, the Average clinical score ([12]; 2 days after completion of administration) was 2.5 and the Average clinical score ([12]; 3 days after completion of administration) was 2.0. The Average clinical score ([12]; 4 days after completion of administration) was 1.8, the “Effective rate (%) in clinical effect” value ([12]; (remarkably effective + effective case number)/test case number × 100) was 50% and the “Average symptomatic improvement rate (%)” value ([12]; (score before − score after administration)/score before × 100) was 75.9%. For the same compound, the Average clinical score ([12]; at administration (baseline), cattle, 10 mg/kg subcutaneous) was 7.5, the “A little effective (%) (case number)” value ([12]; improvement rate 50 to under 70) was 50 (3) % (case number) and the “Effective (%) (case number)” value ([12]; improvement rate 70 to under 85) was 33 (2) % (case number). The “Remarkably effective (%) (case number)” value ([12]; improvement rate 85 to 100) was 17 (1) % (case number), the “Ineffective (%) (case number)” value ([12]; improvement rate under 50) was 0 (0) % (case number) and the MIC [13] was 0.20 µg/mL (≈ 0.301 µM). For the same compound, the MIC [14] was >100 µg/mL, the “Separation rate (%) at completion” value ([15]; at completion) was 17 (1/6) % (number of animal) and the “Separation rate (%) before administration (number of animal)” value [15, 29] was 17 (1/6) % (number of animal). It also gave an MIC [16] of 1.56 µg/mL (≈ 2.35 µM), an MIC [17] of 0.78 µg/mL (≈ 1.17 µM) and an MIC [18] of 6.25 µg/mL (≈ 9.4 µM). For the same compound, the MIC [19] was 0.39 µg/mL (≈ 0.587 µM), the MIC [20] was 6.25 µg/mL (≈ 9.4 µM) and the MIC [21] was 0.78 µg/mL (≈ 1.17 µM). It also gave an MIC [22] of 3.13 µg/mL (≈ 4.71 µM), an MIC [23] of 0.10 µg/mL (≈ 0.15 µM) and an MIC [24] of 0.78 µg/mL (≈ 1.17 µM). It also gave an MIC [25] of 0.78 µg/mL (≈ 1.17 µM) and an MIC [26] of 0.20 µg/mL (≈ 0.301 µM).

`CC[C@H]1OC(=O)C[C@@H](O)[C@H](C)[C@@H](O[C@@H]2O[C@H](C)C(O)C(N(C)C)C2O)[C@@H](CCN2CCCCCCC2)C[C@@H](C)C(=O)/C=C/C(C)=C/[C@@H]1CN1CCCCCCC1` (stereo partly shown) [Compound C-8] was tested, and the MIC [2] was 0.39 µg/mL (≈ 0.494 µM), the MIC [3] was 0.78 µg/mL (≈ 0.987 µM) and the MIC [4] was 1.56 µg/mL (≈ 1.97 µM). For the same compound, the MIC [5] was 0.39 µg/mL (≈ 0.494 µM), the Dissection finding [27, 31] was “no abnormal finding” and the Surviving number [27, 31] was 3/3. For the same compound, the Dissection finding [27, 32] was “no abnormal finding”, the Surviving number [27, 32] was 3/3 and the Dissection finding [27, 33] was “no abnormal finding”. For the same compound, the Surviving number [27, 33] was 3/3, the Surviving number ([27]; intravenous injection, 1.5 mg/mouse) was 0/1 (immediate death) and the Surviving number ([27]; intravenous injection, 2.0 mg/mouse) was 0/3 (immediate death). The Surviving number ([27]; intravenous injection, 4.0 mg/mouse) was 0/1 (immediate death), the Dissection finding [27, 34] was “Sores and alopecia at the administration part” and the “Surviving number / number of used animals” value (shortened to “Surviving number / number”) [27, 34] was 2/2. For the same compound, the Dissection finding [27, 35] was “Sores and alopecia at the administration part”, the “Surviving number / number” value [27, 35] was 2/2 and the Dissection finding [27, 36] was “Sores and alopecia at the administration part”. The “Surviving number / number” value [27, 36] was 2/2, the Dissection finding [27, 37] was “Sores and alopecia at the administration part” and the “Surviving number / number” value [27, 37] was 2/2. The MIC [11] was 1.56 µg/mL (≈ 1.97 µM), the MIC [13] was 0.78 µg/mL (≈ 0.987 µM) and the MIC [14] was 1.56 µg/mL (≈ 1.97 µM). The MIC [17] was 0.20 µg/mL (≈ 0.253 µM), the MIC [28] was 6.25 µg/mL (≈ 7.91 µM) and the MIC [18] was 12.5 µg/mL (≈ 15.8 µM). The MIC [19] was 3.13 µg/mL (≈ 3.96 µM), the MIC [20] was 6.25 µg/mL (≈ 7.91 µM) and the MIC [21] was 3.13 µg/mL (≈ 3.96 µM). For the same compound, the MIC [22] was 0.78 µg/mL (≈ 0.987 µM), the MIC [23] was 0.20 µg/mL (≈ 0.253 µM) and the MIC [24] was 0.78 µg/mL (≈ 0.987 µM). For the same compound, the MIC [25] was 1.56 µg/mL (≈ 1.97 µM) and the MIC [26] was 0.78 µg/mL (≈ 0.987 µM).
